# Test results taken from PubChem BioAssay AID602415 (The Scripps Research Institute Molecular Screening Center, 2012).
# The source made the active and inactive calls.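 The calls were made as follows: active = substrate turnover at or below 60%; inactive = substrate turnover above 60%.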
# Molecular target: Diacylglycerol lipase-beta (Mus musculus) (UniProt Q91WC9)
# Assay: mouse DAGLb substrate turnover inhibition – biochemical, LC-MS, overexpressed mouse DAGLb (AID 602415)
# Conditions: HEK293T membranes overexpressing mDAGLb, SAG turnover LC-MS; at 10 µM; stronger effect = lower value
# Chain of Diacylglycerol lipase-beta (Mus musculus) (Q91WC9 whole entry, looked up): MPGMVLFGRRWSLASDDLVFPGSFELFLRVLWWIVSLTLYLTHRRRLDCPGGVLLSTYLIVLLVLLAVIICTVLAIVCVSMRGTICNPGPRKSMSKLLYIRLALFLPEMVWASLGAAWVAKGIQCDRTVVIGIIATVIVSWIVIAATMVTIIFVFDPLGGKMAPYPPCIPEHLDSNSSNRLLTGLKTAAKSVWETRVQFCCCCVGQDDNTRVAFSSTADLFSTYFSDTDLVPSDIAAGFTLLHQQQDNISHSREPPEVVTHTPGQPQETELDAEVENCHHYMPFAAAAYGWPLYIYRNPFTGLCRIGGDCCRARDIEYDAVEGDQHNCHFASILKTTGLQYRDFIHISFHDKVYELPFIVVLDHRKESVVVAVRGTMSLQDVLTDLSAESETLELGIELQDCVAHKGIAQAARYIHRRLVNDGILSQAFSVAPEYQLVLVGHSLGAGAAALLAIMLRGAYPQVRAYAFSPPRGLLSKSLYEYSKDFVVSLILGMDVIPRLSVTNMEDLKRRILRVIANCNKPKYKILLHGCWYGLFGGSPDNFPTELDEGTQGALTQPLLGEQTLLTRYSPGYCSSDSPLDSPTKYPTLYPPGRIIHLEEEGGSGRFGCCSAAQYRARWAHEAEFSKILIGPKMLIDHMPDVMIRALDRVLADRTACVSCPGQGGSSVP
row,Compound,substrate turnover
1,Nc1nc(-c2ccccc2)c(N=Nc2ccccc2Cl)s1,39%
2,CCN(Cc1ccccc1)c1ccc(N=Nc2nn(C)c(C)c2[N+](=O)[O-])cc1,97% (inactive)
3,CCC(=NNc1ccc([N+](=O)[O-])cc1[N+](=O)[O-])c1ccc(O)cc1,67% (inactive)
4,O=C(NC(C(=O)NN=Cc1cccc2ccccc12)c1n[nH]c(=O)c2ccccc12)c1ccccc1 (stereo unspecified),49%
5,CN(C)c1ccc(N=Nc2ccccc2C(=O)OCC(=O)NCC2CCCCC2)cc1,79% (inactive)
6,COc1cc(/C=C2/C(=O)NN(c3ccc(C)c(Cl)c3)C2=O)cc([N+](=O)[O-])c1O,43%
7,O=S(=O)(O)c1cccc(N=Nc2c(O)ccc3ccccc23)c1,59%
8,COc1cc(C=NNc2ccccc2[N+](=O)[O-])cc(OC)c1O,60% (inactive)
9,Cc1ccc(-n2[nH]c(C)c(C=NNc3ccc([N+](=O)[O-])cc3[N+](=O)[O-])c2=O)cc1C,57%
10,O=C1C(NS(=O)(=O)c2cccs2)=C(N2CCN(c3cccc(Cl)c3)CC2)C(=O)c2ccccc21,81% (inactive)
11,O=C1S/C(=C\c2ccc(O)c([N+](=O)[O-])c2)C(=O)N1c1ccccc1Cl,76% (inactive)
12,CCCN1C(=O)/C(=C2/C=Cc3ccccc3N2CC)SC1=S,68% (inactive)
13,O=C(NNc1c2ccccc2nc2ccccc12)c1ccccc1O,56%
14,Nc1nc(-c2ccccc2)c(N=Nc2ccc(Cl)cc2)s1,23%
15,CC(=O)Nc1ccc(/C=N/Nc2ccc(S(=O)(=O)Nc3ccccc3C(=O)O)cc2[N+](=O)[O-])cc1,84% (inactive)
16,Cn1cc(/C=C2\SC(=O)NC2=S)c2ccccc21,61% (inactive)
17,O=C1c2cccc(Cl)c2C(=O)c2c1cccc2N1CCCC1,52%
18,COC(=O)C1=C(C(=O)OC)SC(=C2C(=S)C(C)(C)N(C(=O)C3CC3)c3ccccc32)S1,95% (inactive)
19,c1ccc(N=NC2=NN(c3ccccc3)CS2)cc1,61% (inactive)
20,O=C1CC(=C(c2ccccc2)c2ccccc2)C(=O)N1CCCCN1CCN(c2cccc(Cl)c2)CC1,26%
21,COC(=O)c1ccccc1NCc1cc(=O)oc2cc(O)c(O)cc12,48%
22,COc1ccc(C=NNc2ccc(C(F)(F)F)cc2[N+](=O)[O-])cc1O,76% (inactive)

row,Compound,substrate turnover
1,CN(C)c1ccc(N=Nc2ccccc2C(=O)OCC(=O)Nc2ccccc2C(F)(F)F)cc1,67% (inactive)
2,O=[N+]([O-])c1ccc(C=NNc2ccc3ccccc3c2)o1,67% (inactive)
3,Cc1ccc(-n2c(O)c(/C=N/Nc3ccc(S(=O)(=O)N4CCOCC4)cc3[N+](=O)[O-])c3ccccc3c2=O)c(C)c1,56%
4,O=[N+]([O-])c1ccccc1NN=Cc1c[nH]c2ccccc12,80% (inactive)
5,Nc1nc(-c2ccccc2)c(N=Nc2cccnc2)s1,53%
6,O=C(NN1C(=O)/C(=C/c2ccc(O)c([N+](=O)[O-])c2)SC1=S)c1ccccc1Cl,59%
7,COc1ccccc1C=NNc1ccccc1[N+](=O)[O-],94% (inactive)
8,CCSC1=NC(=O)/C(=C2/C=Cc3ccccc3N2CC)S1,100% (inactive)
9,CC1(C)CCCN(C(=O)c2ccc3c(c2NCCO)C(=O)c2ccccc2C3=O)C1,20%
10,O=C(NNc1c2ccccc2nc2ccccc12)c1ccc(O)cc1O,79% (inactive)
11,O=[N+]([O-])c1ccc(N2CCN(c3ccccc3)CC2)cc1,91% (inactive)
12,Cc1ccc(NC2=C(Cl)C(=O)OC2OC(=O)c2ccco2)cc1C (stereo unspecified),39%
13,N=C1C(c2nc3ccccc3s2)=C(O)CN1NC(=O)c1ccccc1[N+](=O)[O-],46%
14,CCOc1ccc(Nc2nnc(SCc3nc4ccccc4c(=O)[nH]3)s2)cc1,69% (inactive)
15,N#CC(C#N)=NNc1ccc([N+](=O)[O-])cc1,65% (inactive)
16,CC1CC(C)CN(C(=O)c2ccc3c(c2NCCO)C(=O)c2ccccc2C3=O)C1 (stereo unspecified),78% (inactive)
17,COc1ccc(N/C=C2\C(=O)CCc3c2oc2cc(Cl)c(O)c(Cl)c32)cc1,16%
18,CC1=NN(c2ccccc2)C(=O)/C1=C\C=C1/N(C)c2ccccc2C1(C)C,74% (inactive)
19,O=[N+]([O-])c1ccc(N2CCN(c3ccc(F)cc3)CC2)cc1,74% (inactive)
20,NP(=O)(OCCCCc1ccccc1)Oc1ccccc1Cl (stereo unspecified),25%
21,NS(=O)(=O)c1ccc(N=Nc2c(O)ccc3ccccc23)cc1,57%
22,CCCCCCCCCCC[C@@H](C[C@@H]1OC(=O)[C@H]1CCCCCC)OC(=O)[C@H](CC(C)C)NC=O,0%

row,Compound,substrate turnover
1,O=C1C(=C(c2ccccc2)c2ccccc2)Nc2ccccc21,50%
2,CCCOc1ccc(C(=O)NNC(=S)NC(=O)c2cc(-c3ccc(Cl)cc3)nc3ccccc23)cc1,93% (inactive)
3,Cc1cc(N=Nc2ccccc2)c(NCC(O)C(O)C(O)CO)cc1C (stereo unspecified),69% (inactive)
4,CN(C)c1ccc(N=Nc2ccc(S(N)(=O)=O)cc2)cc1,59%
5,COc1cc(/C=C2\SC(=O)N(c3ccccc3Cl)C2=O)cc([N+](=O)[O-])c1O,61% (inactive)
6,Cc1ccc(C)c(NC(=O)/C(C#N)=C/c2cn(CC(=O)NCc3ccco3)c3ccccc23)c1,93% (inactive)
7,CC(C1SC(=S)NC1=O)C1SC(=S)NC1=O (stereo unspecified),67% (inactive)
8,Cc1cc(N(CCO)CCO)ccc1N=Nc1cc(F)ccc1F,69% (inactive)
9,O=C(NNc1c2ccccc2nc2ccccc12)c1cc2ccccc2cc1O,65% (inactive)
10,Cc1oc2cc([N+](=O)[O-])c(O)c([N+](=O)[O-])c2c1C(=O)c1ccc(Br)cc1,62% (inactive)
11,Cc1ccc(Nc2nnc(SCc3nc4ccccc4c(=O)[nH]3)s2)cc1,87% (inactive)
12,Nc1nc(-c2ccccc2)c(N=Nc2cccc3ccccc23)s1,95% (inactive)
13,Nc1cc([N+](=O)[O-])cc2oc(-c3ccccc3)cc12,89% (inactive)
14,CCN(CCCNc1cc2c(c(N)c1S(=O)(=O)O)C(=O)c1ccccc1C2=O)c1ccccc1,80% (inactive)
15,C/C(C/C(C)=C1/SC(=S)NC1=O)=C1\SC(=S)NC1=O,22%
16,O=C(NC(C(=O)NN=Cc1c2ccccc2cc2ccccc12)c1n[nH]c(=O)c2ccccc12)c1ccccc1 (stereo unspecified),64% (inactive)
17,CCN(CC)c1ccc(N=Nc2nn(C)c(C)c2[N+](=O)[O-])cc1,68% (inactive)
18,Cc1ccc(C2C(/C=C3/SC(=S)NC3=O)=C(c3cccs3)Oc3ccccc32)cc1 (stereo unspecified),35%
19,Nc1ccc2c(c1)C(=O)c1cc(Cl)c(Cl)cc1-2,47%
20,CC(=O)c1ccc(N2CCN(c3ccc(C(F)(F)F)cn3)CC2)cc1,67% (inactive)
21,Cc1[nH]n2c(=O)cc(-c3ccc([N+](=O)[O-])cc3)nc2c1-c1ccccc1,90% (inactive)
22,COc1ccccc1N=Nc1nc(-c2ccccc2)c(-c2ccccc2)[nH]1,79% (inactive)

row,Compound,substrate turnover
1,CC1(C)CC(=O)C2=C(C1)N=C1c3ccccc3C(=O)C1C2c1ccc(Cl)cc1 (stereo unspecified),82% (inactive)
2,COc1ccc(C2/C=C\CN(C(=O)c3ccc(C)cc3)[C@H](Cc3ccccc3)C(=O)N2Cc2ccc(F)cc2)cc1 (stereo partly specified),59%
3,CC(=NNc1ccc(S(N)(=O)=O)cc1[N+](=O)[O-])c1ccc2c(c1)OCO2,64% (inactive)
4,COc1ccc(S(=O)(=O)N2CCOCC2)cc1N=Nc1sc(N)nc1-c1ccccc1,97% (inactive)
5,O=C(O)c1cc(S(=O)(=O)Nc2cc(Cl)ccc2Oc2ccccc2)ccc1O,53%
6,CCOc1ccc2c(c1)-c1c(ssc1=S)C(C)(C)N2,70% (inactive)
7,Nc1ccc(N=Nc2ccccc2)c2cccnc12,88% (inactive)
8,CCOc1ccccc1N1CCN(C2=C(NS(=O)(=O)c3cccs3)C(=O)c3ccccc3C2=O)CC1,79% (inactive)
9,NC(=O)CC(NC(=O)c1ccc(Br)cc1)c1ccc(NCCc2ccc(F)cc2)c([N+](=O)[O-])c1 (stereo unspecified),70% (inactive)
10,CC1=NN(c2ccccc2)C(=O)C1N=Nc1ccc(N)cc1 (stereo unspecified),65% (inactive)
11,O=C1c2ccccc2C(=O)c2c1cccc2N1CCCC1,79% (inactive)
12,COc1cccc(C(=O)NNc2c3ccccc3nc3ccccc23)c1,71% (inactive)
13,CC(=O)c1c(C)oc2ccc(NS(=O)(=O)c3ccc(O)c(C(=O)O)c3)cc12,23%
14,CC1(C)CC(=O)C2=C(C1)c1c(ccc3ccccc13)NC2c1cc([N+](=O)[O-])cc([N+](=O)[O-])c1O (stereo unspecified),46%
15,CN(C)c1ccc(N=Nc2ccc(S(=O)(=O)O)cc2)c2ccccc12,66% (inactive)
16,CCOC(=O)/C(C#N)=C/C=C1\C=Cc2ccccc2N1CC,51%
17,O=C(O)COc1ccccc1C=NNc1ccc(S(=O)(=O)Nc2ccc(Cl)cc2)cc1[N+](=O)[O-],50%
18,CCOc1cc(/C=C2\N=C(SCC)SC2=O)cc([N+](=O)[O-])c1OC(C)=O,78% (inactive)
19,Cc1cc(N=Nc2ccccc2C(=O)O)c(C)c(C)c1O,89% (inactive)
20,CC(=O)C1=C(O)C(=O)N(c2cc(C(C)(C)C)on2)C1c1ccc(Br)cc1 (stereo unspecified),26%
